Experimental data from patent publication US5384405A, “Process for making N-hydroxyl-2-thio-ouinazolin-4-ones” (Olin Corporation, priority 1994, dated 1995).
≈ marks a conversion by molar mass, not a printed value. Like-named read-outs stand apart in the source and are kept apart here.

Assays:
Fusarium = experiment: Minimum inhibitory concentration (MIC), serial dilution in broth, Fusarium; format: cell-based; conditions: 168 h, read-out: MIC, D = Fusarium
Method: (§1) Solutions of the experimental compounds in dimethyl sulfoxide and an aqueous solution of sodium pyrithione were serially diluted in nutrient broth (Tryptic Soy Broth for bacteria and Sabouraud Dextrose Broth for fungi) in microtiter plates. Equal volumes of a broth suspension of bacteria (10^6 CFU/ml) or fungi (10^5 cells or spores/ml) were added to each dilution, and the plates were incubated at 37° C. (bacteria and yeast) or 28° C. (molds). Bacteria, yeast, and molds were incubated two, five, and seven days respectively before determining the highest inhibitory dilution.

Candida albicans = experiment: Minimum inhibitory concentration (MIC), serial dilution in broth, Candida albicans; format: cell-based; conditions: 120 h, read-out: MIC, A = Candida albicans
Method: as §1

Aureobasidium pullulans = experiment: Minimum inhibitory concentration (MIC), serial dilution in broth, Aureobasidium pullulans; format: cell-based; conditions: 168 h, read-out: MIC, B = Aureobasidium pullulans
Method: as §1

Aspergillus niger = experiment: Minimum inhibitory concentration (MIC), serial dilution in broth, Aspergillus niger; format: cell-based; conditions: 168 h, read-out: MIC, C = Aspergillus niger
Method: as §1

[1] = UV stability (photolysis in aqueous solution, immersion well photochemical apparatus); format: physicochemical
Method: The UV stability of IIa was evaluated using a immersion well photochemical apparatus equipped with a Hanovia 450 Watt medium pressure lamp. An aqueous solution (100 ppm in KH2 PO4 buffer pH=7) was irradiated at 25° C. with air agitation for a period of 110 minutes. The rate of photolysis was monitored by UV spectroscopy. Aliquots were taken through a side port of the apparatus into an amber vial and the absorption at 325 nm was measured. A sodium pyrithione aqueous solution (i.e., sodium OMADINE® biocide) was irradiated similarly for comparative purposes.

[2] = molds: 28° C., seven days, Sabouraud Dextrose Broth
[3] = yeast, 37° C., five days, Sabouraud Dextrose Broth
[4] = fungi, Sabouraud Dextrose Broth, molds: 28° C., seven days

Row | SMILES | MIC (Fusarium; [2]) | MIC (Candida albicans; [3]) | MIC (Aureobasidium pullulans; [4]) | MIC (Aspergillus niger; [2]) | half-life ([1]; first order, 100 ppm in KH2PO4 buffer pH=7, 25° C., 450 Watt medium pressure lamp, absorption at 325 nm, read-out: photodecomposition T1/2) | MIC (Fusarium) | MIC (Candida albicans) | MIC (Aureobasidium pullulans) | MIC (Aspergillus niger) | photodecomposition time (decomposed in) ([1]; aqueous solution, same conditions as IIa (pH=7, 25° C., 450 Watt lamp))
1 | Cn1c(=O)c2ccccc2n(O)c1=S [Compound IIa, 1-HYDROXY-3-METHYL-2-THIOXO-1,2-DIHYDROQUINAZOLINE-4(3H)-ONE] | 128 µg/mL (≈ 615 µM) | < 2 µg/mL | < 2 µg/mL | < 2 µg/mL | 55 min | – | – | – | – | –
2 | O=c1[nH]c(=S)n(O)c2ccccc12 [Compound IIg] | 512 µg/mL (≈ 2640 µM) | 64 µg/mL (≈ 330 µM) | 128 µg/mL (≈ 659 µM) | 1020 µg/mL (≈ 5270 µM) | – | – | – | – | – | –
3 | C=CC(=O)On1c(=S)n(C)c(=O)c2ccccc21 [Compound IIj] | 16 µg/mL (≈ 61 µM) | 4 µg/mL (≈ 15.3 µM) | 4 µg/mL (≈ 15.3 µM) | 8 µg/mL (≈ 30.5 µM) | – | – | – | – | – | –
4 | Cn1c(=O)c2ccccc2n(O)c1=S.[Na] [IIa-Na, 1-hydroxy-3-methyl-2-thioxo-1,2-dihydroquinazoline-4(3H)-one, sodium salt] | – | – | – | – | – | 4 µg/mL | – | – | – | –
5 | Cn1c(=O)c2ccc(Cl)cc2n(O)c1=S [IIc] | 64 µg/mL (≈ 264 µM) | < 2 µg/mL | < 2 µg/mL | 4 µg/mL (≈ 16.5 µM) | – | – | – | – | – | –
6 | Cc1ccc2c(c1)c(=O)n(C)c(=S)n2O [IId] | 128 µg/mL (≈ 576 µM) | < 2 µg/mL | 4 µg/mL (≈ 18 µM) | < 2 µg/mL | – | – | – | – | – | –
7 | O=c1c2ccccc2n(O)c(=S)n1-c1ccccc1 [IIe] | 64 µg/mL (≈ 237 µM) | 16 µg/mL (≈ 59.2 µM) | 16 µg/mL (≈ 59.2 µM) | 32 µg/mL (≈ 118 µM) | – | – | – | – | – | –
8 | C=CCn1c(=O)c2ccccc2n(O)c1=S [IIf] | 8 µg/mL (≈ 34.1 µM) | 4 µg/mL (≈ 17.1 µM) | 16 µg/mL (≈ 68.3 µM) | 16 µg/mL (≈ 68.3 µM) | – | – | – | – | – | –
9 | COn1c(=S)n(C)c(=O)c2ccccc21 [IIh] | 512 µg/mL (≈ 2300 µM) | 256 µg/mL (≈ 1150 µM) | 512 µg/mL (≈ 2300 µM) | 512 µg/mL (≈ 2300 µM) | – | – | – | – | – | –
10 | CC(=O)On1c(=S)n(C)c(=O)c2ccccc21 [IIi, 1-ACETOYLOXY-3-METHYL-2-THIOXO-1,2-DIHYDROQUINAZOLINE-4(3H)-ONE] | – | 2 µg/mL (≈ 7.99 µM) | – | – | – | – | – | – | – | –
11 | Cn1c(=O)c2ccccc2n(OC(=O)c2ccccc2)c1=S [IIk] | 512 µg/mL (≈ 1640 µM) | 512 µg/mL (≈ 1640 µM) | 256 µg/mL (≈ 820 µM) | 512 µg/mL (≈ 1640 µM) | – | – | – | – | – | –
12 | C=C(C)C(=O)On1c(=S)n(C)c(=O)c2ccccc21 [IIl] | 512 µg/mL (≈ 1850 µM) | 128 µg/mL (≈ 463 µM) | 4 µg/mL (≈ 14.5 µM) | 32 µg/mL (≈ 116 µM) | – | – | – | – | – | –
13 | Cn1c(=O)c2ccccc2n(OC(=O)O)c1=S [IIm] | 16 µg/mL (≈ 63.4 µM) | 4 µg/mL (≈ 15.9 µM) | 8 µg/mL (≈ 31.7 µM) | 8 µg/mL (≈ 31.7 µM) | – | – | – | – | – | –
14 | CNC(=O)On1c(=S)n(C)c(=O)c2ccccc21 [IIn, 1-N-METHYLCARBAMATE-3-METHYL-2-THIO-1,2-DIHYDROQUINAZOLINE-4(3H)-ONE] | – | – | – | – | – | 16 µg/mL (≈ 60.3 µM) | 4 µg/mL (≈ 15.1 µM) | 8 µg/mL (≈ 30.2 µM) | 8 µg/mL (≈ 30.2 µM) | –
15 | CCOC(=O)c1ccccc1N(O)C(=S)NC [Ib] | 128 µg/mL (≈ 503 µM) | 8 µg/mL (≈ 31.5 µM) | 8 µg/mL (≈ 31.5 µM) | 8 µg/mL (≈ 31.5 µM) | – | – | – | – | – | –
16 | CNC(=S)N(O)c1cc(Cl)ccc1C(=O)OC [Ic] | 128 µg/mL (≈ 466 µM) | < 2 µg/mL | 4 µg/mL (≈ 14.6 µM) | 8 µg/mL (≈ 29.1 µM) | – | – | – | – | – | –
17 | CNC(=S)N(O)c1ccc(C)cc1C(=O)OC [Id] | 512 µg/mL (≈ 2010 µM) | 8 µg/mL (≈ 31.5 µM) | 8 µg/mL (≈ 31.5 µM) | 8 µg/mL (≈ 31.5 µM) | – | – | – | – | – | –
18 | CCOC(=O)c1ccccc1N(O)C(=S)Nc1ccccc1 [Ie] | 64 µg/mL (≈ 202 µM) | 16 µg/mL (≈ 50.6 µM) | 32 µg/mL (≈ 101 µM) | 64 µg/mL (≈ 202 µM) | – | – | – | – | – | –
19 | C=CCNC(=S)N(O)c1ccccc1C(=O)OCC [If] | 16 µg/mL (≈ 57.1 µM) | 4 µg/mL (≈ 14.3 µM) | 16 µg/mL (≈ 57.1 µM) | 16 µg/mL (≈ 57.1 µM) | – | – | – | – | – | –
20 | On1ccccc1=S [sodium pyrithione, reference compound] | – | – | – | – | – | – | – | – | – | 15 s
